The values that follow come from US9102752B2, “Peptide vaccine for prevention and immunotherapy of dementia of the Alzheimer's type” (United Biomedical, Inc., priority 2013, dated 2015).

For experiment [1], the system named is anti-Aβ antibodies in sera from vaccinated baboons. The experiment is described as follows: Epitope mapping, 10-mer peptide-based ELISA with sera from vaccinated baboons. The conditions noted are these: peptide as plate coating. Background: ELISA stands for enzyme-linked immunosorbent assay.
Method: Fine specificity analyses of anti-Aβ antibodies in immunized hosts or vaccines were determined by epitope mapping.
These nested peptides were used individually to coat microtiter wells as solid-phase immunoadsorbents for ELISA tests. The positive control ELISA plate was coated with Aβ1-28. They were tested for antibody binding with the sera from the four immunized baboons, from weeks 0, 10, 84 and 111. Baboon sera were serially diluted and assayed on plates coated with a 10-mer peptide at 5 ug/mL.
In the next experiment the test system is baboon anti-Aβ antibody. The experiment is described as follows: Epitope mapping by competitive inhibition ELISA with hyperimmune baboon sera. The experiment is classed as binding, baboons.
[2] abbreviates: peptide concentration 0.5 μg/mL.

As for 25 (YEVHHQKLVF) [Peptide 25], the “ELISA Titer titers (Log10)” value in experiment [1] (0 weeks post immunization) is 0.16 Log10; in experiment [1] (10 weeks post immunization), 0.43 Log10; in experiment [1] (84 weeks post immunization), 0.15 Log10; in experiment [1] (111 weeks post immunization) it was 0.22 Log10.
On the same counts, the results for 12 (SEVKMDAEFR) [Peptide 12] are 0.21 Log10, 0.24 Log10, 0.16 Log10 and 0.13 Log10.
On the same counts, the results for 29 (HQKLVFFAED) [Peptide 29] are 0.18 Log10, 0.21 Log10, 0.13 Log10 and 0.13 Log10.
For the substance 22 (DSGYEVHHQK) [Peptide 22], the “ELISA Titer titers (Log10)” value is on record as 0.32 Log10 in experiment [1] (0 weeks post immunization), 0.78 Log10 in experiment [1] (10 weeks post immunization), 0.64 Log10 in experiment [1] (84 weeks post immunization) and 0.76 Log10 in experiment [1] (111 weeks post immunization).
On the same counts, the results for 24 (GYEVHHQKLV) [Peptide 24] are 0.13 Log10, 0.27 Log10, 0.19 Log10 and 0.12 Log10.
As for “SEQ ID NO: 18: EFRHD SGYEV (EFRHDSGYEV; PEPTIDE (1)..(10) Abeta 3-12 or APP 770(E674-V683); listed as Homo sapiens) [Aβ3-12]”, the “Percent (%) Inhibition ELISA after peptide pre-absorption of sera” value (“Percent (%) Inhibition ELISA” below) in the experiment on baboon anti-Aβ antibody (setting [2]) was 1%; with baboon anti-Aβ antibody (peptide concentration 1 μg/mL), 0%; in the experiment with baboon anti-Aβ antibody (peptide concentration 2 μg/mL), 0%; in the experiment with baboon anti-Aβ antibody (peptide concentration 8 μg/mL), 0%; in the experiment on baboon anti-Aβ antibody (peptide concentration 32 μg/mL) it was 3%.
Take 21 (HDSGYEVHHQ) [Peptide 21]: the “ELISA Titer titers (Log10)” value in experiment [1] (0 weeks post immunization) came to 0.21 Log10; in experiment [1] (10 weeks post immunization), 0.40 Log10; in experiment [1] (84 weeks post immunization), 0.18 Log10; in experiment [1] (111 weeks post immunization) it was 1.14 Log10.
For “SEQ ID NO: 17: AEFRH DSGYE (AEFRHDSGYE; PEPTIDE (1)..(10) Abeta 2-11 or APP 770(A673-E682); listed as Homo sapiens) [Aβ2-11]”, the “Percent (%) Inhibition ELISA” value is on record as 0% in the experiment with baboon anti-Aβ antibody (setting [2]); 0% with baboon anti-Aβ antibody (peptide concentration 1 μg/mL); 0% in the experiment on baboon anti-Aβ antibody (peptide concentration 2 μg/mL); 6% in the experiment on baboon anti-Aβ antibody (peptide concentration 8 μg/mL); 19% in the experiment with baboon anti-Aβ antibody (peptide concentration 32 μg/mL).
In the case of 14 (VKMDAEFRHD) [Peptide 14], the “ELISA Titer titers (Log10)” value in experiment [1] (0 weeks post immunization) stood at 0.27 Log10; in experiment [1] (10 weeks post immunization) it was 0.46 Log10; in experiment [1] (84 weeks post immunization) it was 0.48 Log10; in experiment [1] (111 weeks post immunization) it was 0.55 Log10.
On to 9 (EEISEVKMDA) [Peptide 9], for which the “ELISA Titer titers (Log10)” value in experiment [1] (0 weeks post immunization) came out at 0.24 Log10; in experiment [1] (10 weeks post immunization), 0.30 Log10; in experiment [1] (84 weeks post immunization), 0.21 Log10; in experiment [1] (111 weeks post immunization) it was 0.22 Log10.
As to 13 (EVKMDAEFRH) [Peptide 13], the “ELISA Titer titers (Log10)” value came out at 0.19 Log10 in experiment [1] (0 weeks post immunization), 0.23 Log10 in experiment [1] (10 weeks post immunization), 0.16 Log10 in experiment [1] (84 weeks post immunization) and 0.14 Log10 in experiment [1] (111 weeks post immunization).
On to 19 (FRHDSGYEVH) [Peptide 19], for which the “ELISA Titer titers (Log10)” value in experiment [1] (0 weeks post immunization) stood at 0.20 Log10; in experiment [1] (10 weeks post immunization) it was 0.40 Log10; in experiment [1] (84 weeks post immunization), 0.22 Log10; in experiment [1] (111 weeks post immunization), 0.30 Log10.
In the case of 15 (KMDAEFRHDS) [Peptide 15], the “ELISA Titer titers (Log10)” value in experiment [1] (0 weeks post immunization) amounted to 0.26 Log10; in experiment [1] (10 weeks post immunization), 0.36 Log10; in experiment [1] (84 weeks post immunization), 0.41 Log10; in experiment [1] (111 weeks post immunization), 0.51 Log10.
The matching figures for 17 (AEFRHDSGYE) [Peptide 17]: 0.25 Log10, 0.35 Log10, 0.25 Log10 and 0.19 Log10.
As to “SEQ ID NO: 16: MDAEF RHDSG (MDAEFRHDSG; PEPTIDE (1)..(10) Abeta -1-9 or APP 770(M671-G680); listed as Homo sapiens) [Aβ-1-9]”, the “Percent (%) Inhibition ELISA” value with baboon anti-Aβ antibody (setting [2]) worked out at 9%; in the experiment on baboon anti-Aβ antibody (peptide concentration 1 μg/mL), 4%; with baboon anti-Aβ antibody (peptide concentration 2 μg/mL), 8%; in the experiment with baboon anti-Aβ antibody (peptide concentration 8 μg/mL) it was 17%; in the experiment on baboon anti-Aβ antibody (peptide concentration 32 μg/mL) it was 39%.
In the case of 28 (HHQKLVFFAE) [Peptide 28], the “ELISA Titer titers (Log10)” value in experiment [1] (0 weeks post immunization) stood at 0.19 Log10; in experiment [1] (10 weeks post immunization) it was 0.22 Log10; in experiment [1] (84 weeks post immunization), 0.13 Log10; in experiment [1] (111 weeks post immunization), 0.12 Log10.
On the same counts, the results for 10 (EISEVKMDAE) [Peptide 10] are 0.23 Log10, 0.25 Log10, 0.16 Log10 and 0.14 Log10.
On the same counts, the results for 18 (EFRHDSGYEV) [Peptide 18] are 0.24 Log10, 0.30 Log10, 0.18 Log10 and 0.18 Log10.
On the same counts, the results for 20 (RHDSGYEVHH) [Peptide 20] are 0.23 Log10, 0.34 Log10, 0.27 Log10 and 0.41 Log10.
